From patent US9271978B2 (Zenith Epigenetics Corp., priority 2012, dated 2016)

How the values were obtained:
Set-up in all cases: key: Active: Compounds with an IC50 value less than 30 μM were deemed to be active.; Not Active: Compounds with an IC50 value less than 30 μM were deemed to be active
[1] = target: T1, Brd4 bromodomain 1 (BRD4(1)) (Homo sapiens, UniProt O60885); experiment: Inhibition of tetra-acetylated histone H4 binding to Brd4 bromodomain 1 (TR-FRET); details: tetra-acetylated histone H4 peptide, active = IC50 <30 μM
T1 construct: Illustrative results with the first bromodomain of Brd4; made in house; host or cells: E. coli BL21 (DE3)
Experimental: (§1) Proteins were cloned and overexpressed with a N-terminal 6×His tag, then purified by nickel affinity followed by size exclusion chromatography. Briefly, E. coli BL21 (DE3) cells were transformed with a recombinant expression vector encoding N-terminally Nickel affinity tagged bromodomains from Brd2, Brd3, Brd4. Cell cultures were incubated at 37° C. with shaking to the appropriate density and induced overnight with IPTG. The supernatant of lysed cells was loaded onto Ni-IDA column for purification. Eluted protein is pooled, concentrated and further purified by size exclusion chromatography. Fractions representing monomeric protein were pooled, concentrated, aliquoted, and frozen at −80° C. for use in subsequent experiments.
(§2) Binding of tetra-acetylated histone H4 and BET bromodomains was confirmed by a Time Resolved Fluorescence Resonance Energy Transfer (TR-FRET) method. N-terminally His-tagged bromodomains (200 nM) and biotinylated tetra-acetylated histone H4 peptide (25-50 nM, Millipore) were incubated in the presence of Europium Cryptate-labeled streptavidin (Cisbio Cat. #610SAKLB) and XL665-labeled monoclonal anti-His antibody (Cisbio Cat. #61HISXLB) in a white 96 well microtiter plate (Greiner). For inhibition assays, serially diluted test compound was added to these reactions in a 0.2% final concentration of DMSO. Final buffer concentrations were 30 mM HEPES pH 7.4, 30 mM NaCl, 0.3 mM CHAPS, 20 mM phosphate pH 7.0, 320 mM KF, 0.08% BSA). After a 2-h incubation at room temperature, the fluorescence by FRET was measured at 665 and 620 nm by a SynergyH4 plate reader (Biotek). Illustrative results with the first bromodomain of Brd4 and the second bromodomain of Brd2 are shown below. The binding inhibitory activity was shown by a decrease in 665 nm fluorescence relative to 620 nm. IC50 values were determined from a dose response curve.

[2] = target: T2, second bromodomain of Brd2 (BRD2(2)) (Homo sapiens, UniProt P25440); experiment: Inhibition of tetra-acetylated histone H4 binding to Brd2 bromodomain 2 (TR-FRET); details: tetra-acetylated histone H4 peptide, active = IC50 <30 μM
T2 construct: made in house; host or cells: E. coli BL21 (DE3)
T2 sequence (P25440 344-453 limits assumed): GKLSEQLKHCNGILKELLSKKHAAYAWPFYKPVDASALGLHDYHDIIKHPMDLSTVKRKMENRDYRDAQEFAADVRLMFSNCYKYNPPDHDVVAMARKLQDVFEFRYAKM
Experimental: as §1, §2

hIL-6 mRNA = experiment: Inhibition of hIL-6 mRNA transcription in U937 cells; type: cell-based, human; details: LPS stimulation, active = IC50 <30 μM
Experimental: In this example, hIL-6 mRNA in tissue culture cells was quantitated to measure the transcriptional inhibition of hIL-6 when treated with a compound of the present disclosure.
A human leukemic monocyte lymphoma cell line (U937) was plated (3.2×10^4 cells per well) in a 96-well plate in […] RPMI-1640 containing 10% FBS and penicillin/streptomycin, and differentiated into macrophages for 3 days in 60 ng/mL PMA ([…]) at 37° C. in 5% CO2 prior to the addition of the compound of interest. The cells were pretreated for 1 h with the test compound prior to stimulation with 1 ug/mL lipopolysaccharide from Escherichia coli. The cells were incubated at 37° C. for 3 h before the cells were harvested. At time of harvest, the spent media was removed from the cells and the cells were rinsed in […] PBS. Cell lysis solution (70 μL) was added the cells in each well and incubated for 5-10 min at room temperature, to allow for complete cell lysis and detachment. mRNA was then prepared using the “mRNA Catcher PLUS plate” (Invitrogen), according to the protocol supplied. After the last wash, as much wash buffer as possible was aspirated without allowing the wells to dry. Elution buffer (E3, 70 μL) was then added to each well. mRNA was then eluted by incubating the mRNA Catcher PLUS plate with Elution Buffer for 5 min at 68° C. and then immediately placing the plate on ice.
The eluted mRNA isolated was then used in a one-step quantitative real-time PCR reaction, using components of the Ultra Sense Kit together with Applied Biosystems primer-probe mixes. Real-time PCR data was analyzed, normalizing the Ct values for hIL-6 to an internal control, prior to determining the fold induction of each unknown sample, relative to the control.

| Structure (SMILES) | FRET activity (IC50 <30 μM) BRD4(1) [1] | FRET activity (IC50 <30 μM) BRD2(2) [2] | IL-6 activity (IC50 <30 μM) (hIL-6 mRNA) |
| --- | --- | --- | --- |
| Cc1noc(C)c1-c1ccc(=O)n(C(C)c2ccccc2C(F)(F)F)c1 (centres unmarked) [Example 38, 5-(3,5-Dimethylisoxazol-4-yl)-1-(1-(2-(trifluoromethyl)phenyl)ethyl)pyridin-2(1H)-one] | Active | Active | Active |
| Cc1noc(C)c1-c1ccc(=O)n(Cc2ccccc2OC(F)(F)F)n1 [Example 39, 6-(3,5-Dimethylisoxazol-4-yl)-2-(2-(trifluoromethoxy)benzyl)pyridazin-3(2H)-one] | Active | Active | Active |
| Cc1noc(C)c1-c1ccc(=O)n(Cc2cccnc2)c1 [Example 44, 5-(3,5-Dimethylisoxazol-4-yl)-1-(pyridin-3-ylmethyl)pyridin-2(1H)-one] | Active | Active | Not Active |
| Cc1[nH]cnc1-c1ccc(=O)n(Cc2ccccc2)c1 [Example 81, 1-Benzyl-5-(5-methyl-1H-imidazol-4-yl)pyridin-2(1H)-one] | Not Active | Active |  |
| Cc1noc(C)c1-c1cc(C)c(=O)n(CC2CC2)n1 [Example 85, 2-(Cyclopropylmethyl)-6-(3,5-dimethylisoxazol-4-yl)-4-methylpyridazin-3(2H)-one] | Active | Active |  |
| Cc1n[nH]c(C)c1-c1ccc(=O)n(Cc2ccccc2)n1 [Example 86, 2-Benzyl-6-(3,5-dimethyl-1H-pyrazol-4-yl)pyridazin-3(2H)-one] | Active | Active |  |
| Cc1noc(C)c1-c1ccc(=O)n(CC2CCC2)n1 [Example 88, 2-(Cyclobutylmethyl)-6-(3,5-dimethylisoxazol-4-yl)pyridazin-3(2H)-one] | Active | Active |  |
| Cc1noc(C)c1-c1ccc(=O)n(Cc2c(F)cc(F)cc2F)n1 [Example 92, 6-(3,5-Dimethylisoxazol-4-yl)-2-(2,4,6-trifluorobenzyl)pyridazin-3(2H)-one] | Active | Active |  |
| Cc1noc(C)c1-c1ccc(=O)n(Cc2cnoc2)n1 [Example 97, 6-(3,5-Dimethylisoxazol-4-yl)-2-(isoxazol-4-ylmethyl)pyridazin-3(2H)-one] | Active | Not Active |  |
| COc1ccc(Oc2ccc(=O)n(Cc3ccccc3)n2)cc1OC [Example 100, 2-Benzyl-6-(3,4-dimethoxyphenoxy)pyridazin-3(2H)-one] | Not Active | Active |  |
| Cc1noc(C)c1-c1ccc(=O)n(C(C)(C)c2ccccc2)c1 [Example 106, 5-(3,5-Dimethylisoxazol-4-yl)-1-(2-phenylpropan-2-yl)pyridin-2(1H)-one] | Active | Active |  |
| Cc1noc(C)c1-c1ccc(=O)n(Cc2ccccc2)c1Cl [Example 114, 1-Benzyl-6-chloro-5-(3,5-dimethylisoxazol-4-yl)pyridin-2(1H)-one] | Active | Active |  |
| Cc1noc(C)c1-c1ccc(=O)n(Cc2ccccc2)c1C [Example 115, 1-Benzyl-5-(3,5-dimethylisoxazol-4-yl)-6-methylpyridin-2(1H)-one] | Active | Active |  |
| COc1cc(-c2ccc(=O)n(Cc3ccc(S(C)(=O)=O)cc3)n2)cc(OC)c1OC [Example 116, 2-(4-(Methylsulfonyl)benzyl)-6-(3,4,5-trimethoxyphenyl)pyridazin-3(2H)-one] | Active | Active |  |
| Cc1noc(C)c1-c1ccc(=O)n(Cc2ccc(F)cc2Cl)c1 [Example 140, 1-(2-Chloro-4-fluorobenzyl)-5-(3,5-dimethylisoxazol-4-yl)pyridin-2(1H)-one] | Active | Active |  |
| Cc1noc(C)c1-c1ccc(=O)n(Cc2ccc3[nH]cnc3c2)n1 [Example 143, 2-((1H-Benzo[d]imidazol-5-yl)methyl)-6-(3,5-dimethylisoxazol-4-yl)pyridazin-3(2H)-one] | Active | Active |  |
| Cc1noc(C)c1-c1ccc(=O)n(Cc2cc(F)c(F)c(F)c2)n1 [Example 144, 6-(3,5-Dimethylisoxazol-4-yl)-2-(3,4,5-trifluorobenzyl)pyridazin-3(2H)-one] | Active | Active |  |
| Cc1noc(C)c1-c1ccc(=O)n(Cc2ccc(S(C)(=O)=O)cc2)c1 [Example 145, 5-(3,5-Dimethylisoxazol-4-yl)-1-(4-(methylsulfonyl)benzyl)pyridin-2(1H)-one] | Active | Active |  |
| Cc1noc(C)c1-c1ccc(=O)n(S(=O)(=O)c2ccc(Cl)cc2)c1 [Example 150, 1-((4-Chlorophenyl)sulfonyl)-5-(3,5-dimethylisoxazol-4-yl)pyridin-2(1H)-one] | Active | Not Active |  |
| Cc1noc(C)c1-c1ccc(=O)n(Cc2ncccn2)c1 [Example 163, 5-(3,5-Dimethylisoxazol-4-yl)-1-(pyrimidin-2-ylmethyl)pyridin-2(1H)-one] | Active | Active |  |
| Cc1noc(C)c1-c1nn(Cc2ccccc2)c(=O)c2ccccc12 [Example 170, 2-Benzyl-4-(3,5-dimethylisoxazol-4-yl)-2H-phthalazin-1-one] | Not Active | Active |  |
| COc1ccc(-c2nn(Cc3ccccc3)c(=O)c3ccccc23)c(OC)c1OC [Example 177, 2-Benzyl-4-(2,3,4-trimethoxyphenyl)phthalazin-1(2H)-one] | Active | Active |  |
| Cc1noc(C)c1-c1cc(Nc2cccnn2)c(=O)n(Cc2ccccc2)c1 [Example 221, 1-benzyl-5-(3,5-dimethylisoxazol-4-yl)-3-(pyridazin-3-ylamino)pyridin-2(1H)-one] | Active |  | Not Active |
| Cc1cccc(Cn2cc(-c3c(C)noc3C)cc(N)c2=O)n1 [Example 244, 3-amino-5-(3,5-dimethylisoxazol-4-yl)-1-((6-methylpyridin-2-yl)methyl)pyridin-2(1H)-one] | Active |  | Active |
| Cc1ccc(Cn2cc(-c3c(C)noc3C)cc(N)c2=O)cn1 [Example 258, 3-amino-5-(3,5-dimethylisoxazol-4-yl)-1-((6-methylpyridin-3-yl)methyl)pyridin-2(1H)-one] | Active |  | Active |
